“Also recorded” adds a separate entry of the source.
How the values were obtained:
ABCD3 = target: T1, ABCD3 (Homo sapiens, UniProt P28288); experiment: Correlation of ABCD3 expression with drug sensitivity across the NCI-60; type: cell-based; conditions: Pearson correlation of ABCD3 expression with sensitivity of the 60 cell lines; 1429 compounds; inverse, p < 0.0001
T1 construct: profiled in 60 diverse cancer cell lines (the NCI-60) using real-time RT-PCR; endogenous in cells; host or cells: NCI-60 human cancer cell lines
Method: (§2) Expression levels are measured by real-time quantitative RT-PCR using the LightCycler RNA Amplification SYBR Green kit and a LightCycler machine (Roche Biochemicals, Indianapolis, Ind.). Specific oligonucleotide probes are designed for each of the ABC transporters using DNAStar Primer Select (DNASTAR Inc.), and they may be synthesized at Lofstrand Laboratories (Gaithersburg, Md.). When possible, the amplicons are designed to encompass exon-intron boundaries to avoid amplification of genomic DNA. Since the Syber Green assay detects accumulation of double stranded DNA, primers are selected (from a battery consisting of about 200 primers) that amplified a single product of the correct size. […]
(§3) During PCR amplification, fluorescence emission is measured and recorded in real time by the LightCycler. Crossing point values are calculated, using the LightCycler software package, by the Fit Points analysis method, with baseline fluorescence set at 1. The SyberGreen assay measures accumulation of double-stranded products, and the appearance of primer dimers limits quantitation at high cycle numbers. […] The raw results are expressed as number of cycles to reach the crossing point. If the desired product is not detected, the corresponding value is adjusted to crossing points indicating no expression. To assess the contribution of experimental artifacts, selected cell lines are assessed in replicate. […]

ABCB2 = target: T2, ABCB2 (Homo sapiens, UniProt Q03518); experiment: Correlation of ABCB2 expression with drug sensitivity across the NCI-60; type: cell-based; conditions: Pearson correlation of ABCB2 expression with sensitivity of the 60 cell lines; 1429 compounds; inverse, p < 0.0001
T2 construct: profiled in 60 diverse cancer cell lines (the NCI-60) using real-time RT-PCR; endogenous in cells; host or cells: NCI-60 human cancer cell lines
Method: as §2, §3

[1] = tested on: KB-V1 cells (over-express MDR1-P-gp) vs parental KB-3-1 cells; experiment: MTT assay using the KB-3-1/KB-V1 cell pair; type: cell-based, human
Method: (§1) Cell survival is measured by the MTT (3-(4,5-Dimethylthiazol-2-yl)-2,5-diphenyltetrazolium) Assay. Cells are seeded in 100 μl medium at a density of 5000 cells/well in 96 well plates, and serially diluted drug (with or without 2 μM PSC 833) is added the following day in 100 μl medium to give the indicated final concentration. Cells are then incubated for 72 hrs at 37° C. in 5% CO2, and the MTT assay is performed according to the manufacturer's instructions (Molecular Probes, Eugene, Oreg.).
To test whether our approach using the NCI-60 does, in fact, identify new substrates, an MTT assay is used to test all top-scoring compounds that were available from DTP for follow-up experiments. KB-3-1, a human carcinoma cell line, and KB-V1, a multidrug resistant derivative of KB-3-1 that over-expresses MDR1-P-gp (Shen et al., 1986, J. Biol. Chem. 261:7762-7770), are used for the tests. […] This resistance of KB-V-1 cells is invariably reversible by PSC 833. The intrinsic fluorescence of one of the compounds, NSC 634791, allows for the measurement of the effect of MDR1 activity on its export from cells.

ABCD1 = target: T3, ABCD1 (Homo sapiens, UniProt P33897); experiment: Correlation of ABCD1 expression with drug sensitivity across the NCI-60; type: cell-based; conditions: Pearson correlation of ABCD1 expression with sensitivity of the 60 cell lines; 1429 compounds; inverse, p < 0.0001
T3 construct: profiled in 60 diverse cancer cell lines (the NCI-60) using real-time RT-PCR; endogenous in cells; host or cells: NCI-60 human cancer cell lines
Method: (§4) Expression levels are measured by real-time quantitative RT-PCR using the LightCycler RNA Amplification SYBR Green kit and a LightCycler machine (Roche Biochemicals, Indianapolis, Ind.). […] When possible, the amplicons are designed to encompass exon-intron boundaries to avoid amplification of genomic DNA. Since the Syber Green assay detects accumulation of double stranded DNA, primers are selected (from a battery consisting of about 200 primers) that amplified a single product of the correct size.
RT-PCR is carried out on 150 ng total RNA, in the presence of 250 nM specific primers. Following reverse transcription (20 min at 50° C.), the PCR reaction consists of 45 cycles of denaturation (15 sec at 95° C.), annealing (30 sec at 58° C.), and elongation (30 sec at 72° C.). No-template (water) reaction mixtures are prepared as negative controls.
During PCR amplification, fluorescence emission is measured and recorded in real time by the LightCycler. Crossing point values are calculated, using the LightCycler software package, by the Fit Points analysis method, with baseline fluorescence set at 1. The SyberGreen assay measures accumulation of double-stranded products, and the appearance of primer dimers limits quantitation at high cycle numbers. The specificity of amplified products is verified by melting-curve analysis and agarose gel electrophoresis (not shown). The raw results are expressed as number of cycles to reach the crossing point. If the desired product is not detected, the corresponding value is adjusted to crossing points indicating no expression. To assess the contribution of experimental artifacts, selected cell lines are assessed in replicate.
The two are combined to form a joint dataset that includes 1429 compounds.
To determine quantitatively how well the 47 genes cluster the cell lines by their tissues of origin, a statistical method is employed wherein the kappa statistic is used to indicate how well the observed clusters correspond to the nine tissue-of-origin classifications. […] To control the overall false type 1 error rate, both a step-down procedure (Westfall and Young, 1993, Resampling-Based Multiple Testing: Examples and Methods for p-value Adjustment (New York: Wiley)) and a step-up procedure (Reiner et al., 2003, Bioinformatics 19:368-375) were employed to adjust for multiple testing of all 47 genes simultaneously. In the Benjamini-Hochberg procedure the p-values are computed in the standard way by permutation, assuming that all distributions are exchangeable: the number of values in the permuted data with correlations over a threshold, divided by the number of compounds and by the number of permutations. In this analysis, the False Discovery Rate (q-value) at which each compound would be declared was calculated using the step-up procedure for positively correlated test statistics (again true because all correlations being compared are computed against the same ABC gene): in this procedure the first q-value for the largest correlation is the Bonferroni-corrected p-value for that gene; then further q-values are calculated as qj=max(pj*1429/j, qj-1). This procedure limits the expected proportion of false positives in the list 1, . . . , j to at most qj.

[2] = tested on: KB Hela cells expressing ABCB1(MDR1) under tetracycline control; experiment: MTT assay using HeLa-transfectants with human MDR1 under tetracycline control; type: cell-based; conditions: absence (On) or presence (Off) of 2 μg/ml tetracycline
Method: Panel A is a scatter plot showing positive correlation (r=+0.54; 95% confidence interval 0.259 to 0.713) of ABCB1 expression with sensitivity of the 60 cell lines to NSC 73306. […] Cells are grown in the absence (ABCB1(MDR1)-On) or presence (ABCB1(MDR1)-Off) of 2 μg/ml tetracycline for at least seven days before starting the MTT assay. Cell surface expression and function of ABCB1 (MDR1) are verified prior to the assay by staining with anti-MDR1 monoclonal antibody (MRK-16) and by a performing a functional assay based on MDR1-controlled accumulation of the fluorescent dye Calcein (Homolya et al., 1996, Br. J. Cancer 73:849-855). […] Values are means ±S.E. of triplicate measurements.
as §1, with “Oreg.). […]” for “Oreg.).”

MDR1 positive cells = experiment: Pretreatment of MDR1 positive cells with MDR1-potentiated compound (loss of MDR phenotype); type: cell-based
Text: In another preferred embodiment, the invention relates to methods of inhibiting the development of a multidrug resistance phenotype in a cancer in a subject comprising administering an ABCB1 potentiated agent to the subject. As used herein, inhibiting the development of a multidrug resistant phenotype refers to both the inhibition of the initial onset of the phenotype or the inhibition of any further development of the multidrug phenotype. It is contemplated as part of the invention that the ABCB1 potentiated agent may be administered simultaneously with a chemotherapeutic agent that is a substrate of the ABCB1 transporter. It is understood as an aspect of the invention that such simultaneous administration refers to administration within the same general time period rather than at the same exact moment in time. Thus treatment with the ABCB1 potentiated compound and the chemotherapeutic agent may be on the same day or on different days, or in the same week or in different weeks. It is within the skill of the ordinary artisan to optimize a treatment schedule to maintain the therapeutic efficacy of the chemotherapeutic agent by administration of the ABCB1 potentiated compound to inhibit the development of drug resistance. MDR1-potentiated compounds may be used to prevent the emergence of drug resistance clones. […]

MDR1 = MDR1 (Homo sapiens, UniProt P08183); experiment: Block of MDR1-mediated transport of other molecules; type: cell-based
ABCB1 = ABCB1 (Homo sapiens, UniProt P08183); experiment: Correlation of ABCB1 expression with drug sensitivity across the NCI-60
Procedure, shortened: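 SYBR Green real-time RT-PCR on 150 ng total RNA with 250 nM primers: RT 20 min at 50 °C, then 45 cycles; expression taken as crossing-point cycle number. Correlated with drug sensitivity of 1429 compounds across the cell panel; permutation p-values with step-down and step-up (FDR q-value) multiple-testing correction.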

ABCD4 = target: T4, ABCD4 (Homo sapiens, UniProt O14678); experiment: Correlation of ABCD4 expression with drug sensitivity across the NCI-60; type: cell-based; conditions: Pearson correlation of ABCD4 expression with sensitivity of the 60 cell lines; 1429 compounds; inverse, p < 0.0001
T4 construct: profiled in 60 diverse cancer cell lines (the NCI-60) using real-time RT-PCR; endogenous in cells; host or cells: NCI-60 human cancer cell lines
Method: as §2, §3

ABCF1 = target: T5, ABCF1 (Homo sapiens, UniProt Q8NE71); experiment: Correlation of ABCF1 expression with drug sensitivity across the NCI-60; type: cell-based; conditions: Pearson correlation of ABCF1 expression with sensitivity of the 60 cell lines; 1429 compounds; inverse, p < 0.0001
T5 construct: endogenous in cells; host or cells: NCI-60 human cancer cell lines
Method: as §2, §3

ABCG8 = target: T6, ABCG8 (Homo sapiens, UniProt Q9H221); experiment: Correlation of ABCG8 expression with drug sensitivity across the NCI-60; type: cell-based; conditions: Pearson correlation of ABCG8 expression with sensitivity of the 60 cell lines; 1429 compounds; inverse, p < 0.0001
T6 construct: endogenous in cells; host or cells: NCI-60 human cancer cell lines
Method: as §2, §3

ABCC4 = target: T7, ABCC4 (Homo sapiens, UniProt O15439); experiment: Correlation of ABCC4 expression with drug sensitivity across the NCI-60; type: cell-based; conditions: Pearson correlation of ABCC4 expression with sensitivity of the 60 cell lines; 1429 compounds; inverse, p < 0.0001
T7 construct: profiled in 60 diverse cancer cell lines (the NCI-60) using real-time RT-PCR; endogenous in cells; host or cells: NCI-60 human cancer cell lines
Method: as §4
(§5) RT-PCR is carried out on 150 ng total RNA, in the presence of 250 nM specific primers. […]
as §3

ABCC9 = target: T8, ABCC9 (Homo sapiens, UniProt O60706); experiment: Correlation of ABCC9 expression with drug sensitivity across the NCI-60; type: cell-based; conditions: Pearson correlation of ABCC9 expression with sensitivity of the 60 cell lines; 1429 compounds; inverse, p < 0.0001
T8 construct: profiled in 60 diverse cancer cell lines (the NCI-60) using real-time RT-PCR; endogenous in cells; host or cells: NCI-60 human cancer cell lines
Method: as §4, §5, §3

ABCB3 = target: T9, ABCB3 (Homo sapiens, UniProt Q03519); experiment: Correlation of ABCB3 expression with drug sensitivity across the NCI-60; type: cell-based; conditions: Pearson correlation of ABCB3 expression with sensitivity of the 60 cell lines; 1429 compounds; inverse, p < 0.0001
T9 construct: profiled in 60 diverse cancer cell lines (the NCI-60) using real-time RT-PCR; endogenous in cells; host or cells: NCI-60 human cancer cell lines
Method: as §4, §5
During PCR amplification, fluorescence emission is measured and recorded in real time by the LightCycler. Crossing point values are calculated, using the LightCycler software package, by the Fit Points analysis method, with baseline fluorescence set at 1. The SyberGreen assay measures accumulation of double-stranded products, and the appearance of primer dimers limits quantitation at high cycle numbers. […] The raw results are expressed as number of cycles to reach the crossing point. If the desired product is not detected, the corresponding value is adjusted to crossing points indicating no expression. To assess the contribution of experimental artifacts, selected cell lines are assessed in replicate.

ABCC8 = target: T10, ABCC8 (Homo sapiens, UniProt Q09428); experiment: Correlation of ABCC8 expression with drug sensitivity across the NCI-60; type: cell-based; conditions: Pearson correlation of ABCC8 expression with sensitivity of the 60 cell lines; 1429 compounds; inverse, p < 0.0001
T10 construct: profiled in 60 diverse cancer cell lines (the NCI-60) using real-time RT-PCR; endogenous in cells; host or cells: NCI-60 human cancer cell lines
Method: as §4, §5, §3

ABCC11 = target: T11, ABCC11 (Homo sapiens, UniProt Q96J66); experiment: Correlation of ABCC11 expression with drug sensitivity across the NCI-60; type: cell-based; conditions: after removal of the single, high-expressing cell line (T47D)
T11 construct: profiled in 60 diverse cancer cell lines (the NCI-60) using real-time RT-PCR; endogenous in cells; host or cells: NCI-60 human cancer cell lines
Method: as §4, §5, §3

[3] = tested on: ABCC11-transfected LLC-PK1 cells; experiment: MTT assay, ABCC11-transfected vs sham-transfected LLC-PK1 cells; type: cell-based
Method: Panel A is a scatter plot showing the correlation (r) of ABCC11 expression with sensitivity of the 60 cells to NSC 671136 (r=−0.4; 99.99% two-tailed bootstrap confidence interval −0.6726 to −0.0141). […] Values are means ±S.E. of triplicate MTT assays.
as §1
One compound, NSC 671136 (shown in FIG. 5, Panel C), met the stringent bootstrap criterion for significant inverse correlation with the expression of ABCC11 in the 60 cell lines (FIG. 5, Panel A). An MTT assay was used to assess whether over-expression of ABCC11 can confer resistance to the NSC 671136 compound.

ABCA2 = target: T12, ABCA2 (Homo sapiens, UniProt Q9BZC7); experiment: Correlation of ABCA2 expression with drug sensitivity across the NCI-60; type: cell-based; conditions: Pearson correlation of ABCA2 expression with sensitivity of the 60 cell lines; 1429 compounds; inverse, p < 0.0001
T12 construct: profiled in 60 diverse cancer cell lines (the NCI-60) using real-time RT-PCR; endogenous in cells; host or cells: NCI-60 human cancer cell lines
Method: as §4, §5, §3

Sequence of ABCB1 (P08183 whole entry): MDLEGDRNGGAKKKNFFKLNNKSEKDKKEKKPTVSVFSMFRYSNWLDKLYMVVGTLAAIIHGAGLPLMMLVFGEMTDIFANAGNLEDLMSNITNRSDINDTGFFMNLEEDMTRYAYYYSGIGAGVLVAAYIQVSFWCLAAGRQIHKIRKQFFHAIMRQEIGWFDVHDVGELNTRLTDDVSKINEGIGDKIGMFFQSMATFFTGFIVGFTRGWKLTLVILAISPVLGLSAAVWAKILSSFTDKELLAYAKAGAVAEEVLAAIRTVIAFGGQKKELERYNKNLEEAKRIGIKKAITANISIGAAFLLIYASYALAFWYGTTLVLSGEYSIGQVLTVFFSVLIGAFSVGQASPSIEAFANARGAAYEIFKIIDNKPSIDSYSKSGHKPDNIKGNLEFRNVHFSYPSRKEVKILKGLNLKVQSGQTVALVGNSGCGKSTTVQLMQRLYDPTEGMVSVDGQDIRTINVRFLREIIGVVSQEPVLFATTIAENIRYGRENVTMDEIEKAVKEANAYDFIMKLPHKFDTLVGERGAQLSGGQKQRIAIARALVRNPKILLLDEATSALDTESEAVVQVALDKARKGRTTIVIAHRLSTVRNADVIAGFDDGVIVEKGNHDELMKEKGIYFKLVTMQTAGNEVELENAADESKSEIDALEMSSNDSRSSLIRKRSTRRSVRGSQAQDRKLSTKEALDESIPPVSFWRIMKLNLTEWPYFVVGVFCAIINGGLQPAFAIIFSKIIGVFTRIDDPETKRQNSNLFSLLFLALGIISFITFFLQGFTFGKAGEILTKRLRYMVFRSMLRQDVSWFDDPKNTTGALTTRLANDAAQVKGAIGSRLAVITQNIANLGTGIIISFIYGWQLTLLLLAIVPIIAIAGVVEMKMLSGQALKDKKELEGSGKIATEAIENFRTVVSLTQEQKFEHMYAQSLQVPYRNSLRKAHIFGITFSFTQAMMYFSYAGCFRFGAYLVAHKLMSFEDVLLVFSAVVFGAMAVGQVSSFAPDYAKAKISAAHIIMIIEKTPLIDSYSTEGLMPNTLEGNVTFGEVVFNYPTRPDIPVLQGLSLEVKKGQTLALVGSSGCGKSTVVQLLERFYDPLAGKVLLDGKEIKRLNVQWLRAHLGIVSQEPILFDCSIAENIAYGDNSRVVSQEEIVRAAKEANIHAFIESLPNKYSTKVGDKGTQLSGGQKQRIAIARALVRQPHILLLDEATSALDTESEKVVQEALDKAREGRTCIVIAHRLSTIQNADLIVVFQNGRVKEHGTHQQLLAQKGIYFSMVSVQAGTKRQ
T3 sequence (P33897 whole entry): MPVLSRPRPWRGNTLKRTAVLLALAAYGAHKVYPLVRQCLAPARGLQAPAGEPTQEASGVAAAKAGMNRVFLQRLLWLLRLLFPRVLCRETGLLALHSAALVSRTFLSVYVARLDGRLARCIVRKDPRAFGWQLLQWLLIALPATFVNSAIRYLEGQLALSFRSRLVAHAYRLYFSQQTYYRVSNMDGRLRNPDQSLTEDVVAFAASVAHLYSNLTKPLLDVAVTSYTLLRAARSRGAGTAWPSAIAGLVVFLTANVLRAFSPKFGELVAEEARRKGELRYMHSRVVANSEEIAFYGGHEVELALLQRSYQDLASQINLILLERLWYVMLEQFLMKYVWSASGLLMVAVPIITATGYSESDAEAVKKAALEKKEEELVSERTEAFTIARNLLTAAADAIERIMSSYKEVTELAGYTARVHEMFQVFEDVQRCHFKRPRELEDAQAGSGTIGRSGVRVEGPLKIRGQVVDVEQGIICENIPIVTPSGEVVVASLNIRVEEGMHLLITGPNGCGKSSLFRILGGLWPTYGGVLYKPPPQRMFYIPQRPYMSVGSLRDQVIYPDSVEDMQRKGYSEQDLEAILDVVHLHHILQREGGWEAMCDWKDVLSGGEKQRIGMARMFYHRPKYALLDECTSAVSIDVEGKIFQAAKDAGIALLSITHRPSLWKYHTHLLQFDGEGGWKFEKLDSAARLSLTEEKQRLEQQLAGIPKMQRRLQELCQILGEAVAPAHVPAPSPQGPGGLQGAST
T9 sequence (Q03519 whole entry): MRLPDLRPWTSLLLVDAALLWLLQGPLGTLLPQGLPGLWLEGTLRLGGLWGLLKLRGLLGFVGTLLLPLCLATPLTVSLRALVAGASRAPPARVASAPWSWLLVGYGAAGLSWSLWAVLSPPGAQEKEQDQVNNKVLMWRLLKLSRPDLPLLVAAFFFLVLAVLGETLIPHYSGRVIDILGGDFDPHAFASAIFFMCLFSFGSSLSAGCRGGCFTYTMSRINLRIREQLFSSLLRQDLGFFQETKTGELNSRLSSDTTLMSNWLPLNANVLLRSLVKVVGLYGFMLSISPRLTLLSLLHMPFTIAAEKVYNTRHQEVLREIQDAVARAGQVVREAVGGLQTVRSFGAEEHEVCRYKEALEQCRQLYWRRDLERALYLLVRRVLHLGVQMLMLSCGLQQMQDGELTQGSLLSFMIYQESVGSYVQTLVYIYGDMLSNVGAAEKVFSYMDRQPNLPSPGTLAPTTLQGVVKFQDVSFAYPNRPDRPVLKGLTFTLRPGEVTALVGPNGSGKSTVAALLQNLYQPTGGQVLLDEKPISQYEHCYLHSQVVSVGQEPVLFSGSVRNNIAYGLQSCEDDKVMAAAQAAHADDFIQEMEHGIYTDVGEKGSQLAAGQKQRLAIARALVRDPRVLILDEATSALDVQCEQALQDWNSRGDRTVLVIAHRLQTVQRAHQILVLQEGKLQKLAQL
T9 sequence (Q03518 whole entry partner): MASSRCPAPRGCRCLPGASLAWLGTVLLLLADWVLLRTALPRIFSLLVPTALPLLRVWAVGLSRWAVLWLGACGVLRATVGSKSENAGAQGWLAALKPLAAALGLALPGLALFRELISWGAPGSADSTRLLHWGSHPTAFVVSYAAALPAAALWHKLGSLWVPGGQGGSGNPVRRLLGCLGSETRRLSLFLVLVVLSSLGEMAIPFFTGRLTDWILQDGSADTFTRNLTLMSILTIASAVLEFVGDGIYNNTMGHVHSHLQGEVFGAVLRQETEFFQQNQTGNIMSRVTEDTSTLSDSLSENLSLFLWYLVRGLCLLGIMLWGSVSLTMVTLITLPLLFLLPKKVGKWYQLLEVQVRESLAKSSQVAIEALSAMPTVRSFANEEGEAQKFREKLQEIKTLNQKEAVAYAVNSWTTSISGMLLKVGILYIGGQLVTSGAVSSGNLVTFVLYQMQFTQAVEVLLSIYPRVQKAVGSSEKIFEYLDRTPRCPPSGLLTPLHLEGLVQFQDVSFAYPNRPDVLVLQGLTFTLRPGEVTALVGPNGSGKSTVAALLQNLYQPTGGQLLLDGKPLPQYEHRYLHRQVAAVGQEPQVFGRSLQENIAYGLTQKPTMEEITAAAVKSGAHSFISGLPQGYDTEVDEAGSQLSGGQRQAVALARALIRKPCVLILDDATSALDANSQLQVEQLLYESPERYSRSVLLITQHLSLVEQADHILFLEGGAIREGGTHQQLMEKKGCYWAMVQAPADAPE
T6 sequence (Q9H221 whole entry): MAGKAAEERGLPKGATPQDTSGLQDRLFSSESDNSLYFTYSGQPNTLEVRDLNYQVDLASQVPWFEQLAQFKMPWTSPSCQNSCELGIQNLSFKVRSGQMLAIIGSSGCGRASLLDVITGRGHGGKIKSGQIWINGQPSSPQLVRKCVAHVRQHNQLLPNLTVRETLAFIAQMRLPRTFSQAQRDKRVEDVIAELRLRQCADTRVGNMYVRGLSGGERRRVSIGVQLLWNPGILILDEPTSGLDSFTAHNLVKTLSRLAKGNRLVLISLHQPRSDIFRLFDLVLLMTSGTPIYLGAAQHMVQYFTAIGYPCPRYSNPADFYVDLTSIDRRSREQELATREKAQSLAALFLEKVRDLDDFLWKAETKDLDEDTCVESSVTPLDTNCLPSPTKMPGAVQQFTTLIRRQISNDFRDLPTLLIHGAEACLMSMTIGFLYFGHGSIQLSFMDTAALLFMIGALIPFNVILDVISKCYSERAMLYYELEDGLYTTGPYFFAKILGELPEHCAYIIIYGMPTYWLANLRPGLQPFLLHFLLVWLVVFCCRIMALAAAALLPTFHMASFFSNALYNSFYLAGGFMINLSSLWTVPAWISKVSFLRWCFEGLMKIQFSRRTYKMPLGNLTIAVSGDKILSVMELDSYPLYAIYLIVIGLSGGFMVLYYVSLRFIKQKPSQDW
T6 sequence (Q9H222 whole entry partner): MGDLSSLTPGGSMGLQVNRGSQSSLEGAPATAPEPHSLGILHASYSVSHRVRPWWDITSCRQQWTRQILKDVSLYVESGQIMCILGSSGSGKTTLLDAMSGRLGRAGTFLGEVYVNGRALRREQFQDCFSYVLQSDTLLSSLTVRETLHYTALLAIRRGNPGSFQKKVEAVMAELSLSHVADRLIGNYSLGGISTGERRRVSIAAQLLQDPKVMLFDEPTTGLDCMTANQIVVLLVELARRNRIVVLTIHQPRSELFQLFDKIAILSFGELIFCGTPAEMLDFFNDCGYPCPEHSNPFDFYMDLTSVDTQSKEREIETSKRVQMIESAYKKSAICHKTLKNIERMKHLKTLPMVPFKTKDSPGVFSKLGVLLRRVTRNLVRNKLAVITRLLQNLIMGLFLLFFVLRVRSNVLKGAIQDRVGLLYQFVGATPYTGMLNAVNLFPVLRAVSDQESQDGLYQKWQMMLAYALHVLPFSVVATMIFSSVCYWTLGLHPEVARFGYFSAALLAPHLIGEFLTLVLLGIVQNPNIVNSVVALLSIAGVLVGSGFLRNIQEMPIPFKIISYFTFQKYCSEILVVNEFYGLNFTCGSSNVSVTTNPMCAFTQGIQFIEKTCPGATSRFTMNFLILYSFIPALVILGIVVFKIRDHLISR
T2 sequence (Q03518 whole entry): as the sequence (Q03518 whole entry partner) above
T2 sequence (Q03519 whole entry partner): as the sequence (Q03519 whole entry) above

O=c1[nH]cc(F)c(=O)[nH]1 [NSC 19893]
Correlation (ABCD3): −0.4232

CC(C)C1=CC2=CC[C@@H]3[C@](C)(CCC[C@@]3(C)C(=O)O)[C@H]2CC1 [NSC 25149]
Correlation (ABCB2): −0.3794

COc1ccc(NC(=S)N/N=C2\C(=O)Nc3c(Cl)cc(Cl)cc32)cc1 [NSC 73306]
Effect of PSC 833 on the heightened sensitivity of KB-V1 cells ([1]; MTT assay with 2 μM PSC 833): completely reversed sensitivity; also recorded: completely abolished the heightened sensitivity | Sensitivity of KB-V1 cells relative to parental KB-3-1 (potentiation by ABCB1) ([1]; MTT assay, 72 hrs): four- to five-fold; also recorded: approximately four-fold | Correlation (ABCD1): −0.6029 | Sensitivity of MDR1-On cells relative to MDR1-Off cells [2]: two- to four-fold; also recorded: approximately two-fold | Drug sensitivity for non-MDR1 substrates after pretreatment (MDR1 positive cells; non-MDR1 substrates such as cisplatin and methotrexate): unchanged | Drug resistance to MDR1 substrates after pretreatment (MDR1 positive cells; pretreatment of MDR1 positive cells): almost complete elimination of drug resistance | Block of MDR1-mediated transport of other molecules (MDR1): does not block | Correlation of antiproliferative activity with ABCB1 expression (ABCB1): 0.511

CC(=O)OC(C)(C)/C=C/C(=O)[C@](C)(O)[C@H]1[C@H](O)C[C@@]2(C)[C@@H]3CC=C4[C@@H](C=C(O)C(=O)C4(C)C)[C@]3(C)C(=O)C[C@]12C [NSC 106399]
Correlation (ABCD4): −0.4232 | Pearson's Correlation Coeff (ABCB1): 0.1871

N[C@H](C(=O)O)[C@@H]1CC(Cl)=NO1 [NSC 163501]
Correlation (ABCD1): −0.4301 | Pearson's Correlation Coeff (ABCB1): 0.2122 | Correlation (ABCF1): −0.5274

C=C1[C@@H](C)[C@H]2[C@H](Cc3ccccc3)NC(=O)[C@]23[C@H](OC(C)=O)/C=C/[C@@](C)(O)C(=O)[C@@H](C)C/C=C/[C@H]3[C@@H]1O [NSC 209835]
Correlation (ABCG8): −0.4443

CSCSCC(CO)NC(=O)/C=C\c1c(C)[nH]c(=O)[nH]c1=O (centres unmarked) [NSC 251820]
Correlation (ABCC4): −0.4340

COc1cc2c(c(OC)c1OC)-c1cccc(=O)cc1C(NC(C)=O)CC2 (centres unmarked) [NSC 352277]
Correlation (ABCC9): −0.3094

CS(=O)(=O)c1cc(=O)c2ccccc2s1 [NSC 622282]
Correlation (ABCB3): −0.4406

COc1cc2[nH]c3c(c2cc1OC)CCN[C@@]31CC[C@@]2(CC3c4c(cc(OC)c(O)c42)CCN3C)C[C@@H]1OC (some centres unmarked) [NSC 626578]
Correlation (ABCC8): −0.4335

CC(=O)c1sc2c(c1OC(=O)c1ccc(Cl)cc1Cl)c(=O)n(-c1ccccc1)c(=S)n2-c1ccccc1 [NSC 671136]
Correlation (r) of ABCC11 expression with sensitivity (ABCC11): −0.38 | Resistance of ABCC11-transfected LLC-PK1 cells relative to sham-transfected cells [3]: two- to three-fold

O=C1c2cccc3cc([N+](=O)[O-])cc(c23)C(=O)N1Nc1ccc([N+](=O)[O-])cc1[N+](=O)[O-] [NSC 679265]
Correlation (ABCA2): −0.3298

From patent US20080214606A1, “Methods for the Identification and Use of Compounds Suitable for the Treatment of Drug Resistant Cancer Cells” (The Government of the United States of America as …, priority 2004, published 2008)
